In doi:10.1101/2021.05.10.443505v2 (biorxiv, 2021):

Molecular target: T1, human ID2 protein (Homo sapiens, UniProt Q02363)
T1 sequence (Q02363 1-134): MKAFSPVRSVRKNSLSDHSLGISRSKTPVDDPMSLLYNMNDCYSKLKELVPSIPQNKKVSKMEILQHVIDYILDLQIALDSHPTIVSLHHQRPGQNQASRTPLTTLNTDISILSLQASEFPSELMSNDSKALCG
Assay: SPR
Assay type: binding

Kd: 129 nM
Structure (SMILES): O=C(CC1(O)C(=O)N(Cc2cccc(Cl)c2)c2ccccc21)c1ccccn1 (stereo not shown) [AK-778-XXMU]
